From patent US7339026B2, “mda-9 protein” (The Trustees of Columbia University In the City of New York, priority 1996, dated 2008)

Tests used:
Assay type in all cases: cell-based, human
WM35 = assay: Effect of recombinant immune interferon (IFN-γ) on growth (cell numbers); conditions: 96 hr
Source text: (§1) Cell lines and culture conditions. H0-1 is a melanotic melanoma cell line produced from a metastatic inguinal node lesion from a person and was used between passages 170 and 200 (Giovanella et al., 1976; Huberman et al., 1979; Fisher et al., 1985). C8161 is a highly metastatic amelanotic human melanoma cell line derived from an abdominal wall metastasis (Welch et al., 1991). FM516-SV is a normal human melanocyte culture immortalized by the SV40 T-antigen gene (Melber et al., 1989). The WM35 cell line was isolated from a patient with a radial growth phase primary melanoma (Herlyn, 1990). The WM278 cell line is from a patient with an early vertical growth phase primary melanoma (Herlyn, 1990). Cultures were grown at 37° C. in a 95% air 5% C02-humidified incubator in Dulbecco's modified Eagle's medium (DMEM) supplemented with 5 or 10% fetal bovine serum. Cultures were maintained in the logarithmic phase of growth by subculturing (1:5 or 1:10) prior to confluence approximately every 4 to 7 D.

WM278 = assay: as above; conditions: 96 hr
Source text: as §1

C8161 = assay: as above; conditions: 96 hr
Source text: as §1

H0-1 = assay: as above; conditions: 96 hr
Source text: as §1

H0-1 cells = assay: Effect of interferons on growth of H0-1 cells (FIG. 3); conditions: 4 d treatment with 100 U/ml interferon
Method: FIG. 3. […] Results are the average cell number ±S.D. from the mean.
Experiments were performed to determine if a relationship exists between growth suppression and reduced mda-9 expression. To test this connection, the effect of interferon and MEZ treatment on proliferation and mda-9 expression in human melanoma cells was determined.

IFN-γ: Recombinant human IFN-γ (type II, immune interferon)
average cell number ± S.D. (WM35; 1 U/ml of IFN-γ): 84.8 ± 6.7 | percent of cell number reduction versus control (WM35; 1 U/ml of IFN-γ): 2% | average cell number ± S.D. (WM35; 10 U/ml of IFN-γ): 62.7 ± 4.3 | percent of cell number reduction versus control (WM35; 10 U/ml of IFN-γ): 28% | average cell number ± S.D. (WM35; 100 U/ml of IFN-γ): 28.2 ± 1.7 | percent of cell number reduction versus control (WM35; 100 U/ml of IFN-γ): 67% | average cell number ± S.D. (WM278; 1 U/ml of IFN-γ): 14.9 ± 0.8 | percent of cell number reduction versus control (WM278; 1 U/ml of IFN-γ): 33% | average cell number ± S.D. (WM278; 10 U/ml of IFN-γ): 12.7 ± 1.0 | percent of cell number reduction versus control (WM278; 10 U/ml of IFN-γ): 42% | average cell number ± S.D. (WM278; 100 U/ml of IFN-γ): 12.5 ± 0.6 | percent of cell number reduction versus control (WM278; 100 U/ml of IFN-γ): 44% | average cell number ± S.D. (C8161; 1 U/ml of IFN-γ): 24.4 ± 0.8 | percent of cell number reduction versus control (C8161; 1 U/ml of IFN-γ): 30% | average cell number ± S.D. (C8161; 10 U/ml of IFN-γ): 25.1 ± 0.8 | percent of cell number reduction versus control (C8161; 10 U/ml of IFN-γ): 28% | average cell number ± S.D. (C8161; 100 U/ml of IFN-γ): 22.2 ± 1.4 | percent of cell number reduction versus control (C8161; 100 U/ml of IFN-γ): 36% | average cell number ± S.D. (H0-1; 1 U/ml of IFN-γ): 15.8 ± 0.5 | percent of cell number reduction versus control (H0-1; 1 U/ml of IFN-γ): 22% | average cell number ± S.D. (H0-1; 10 U/ml of IFN-γ): 15.4 ± 0.3 | percent of cell number reduction versus control (H0-1; 10 U/ml of IFN-γ): 24% | average cell number ± S.D. (H0-1; 100 U/ml of IFN-γ): 11.5 ± 1.3 | percent of cell number reduction versus control (H0-1; 100 U/ml of IFN-γ): 44% | reduction of H0-1 growth (H0-1 cells): ~43%
